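Assay format: 96-well plates, 48-hour exposure. The concentration for full growth arrest is given as TGI.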
How the values were obtained:
Experiment in all cases: NCI anticancer screen, dose series, 48 h
ACHN renal = system: ACHN renal
SR leukemia = system: SR leukemia
SW-620 colon = system: SW-620 colon
OVCAR-8 ovarian = system: OVCAR-8 ovarian
UO-31 renal = system: UO-31 renal
EKVX NSCLC = system: EKVX NSCLC
A498 renal = system: A498 renal
SF-268 CNS = system: SF-268 CNS
COLO 205 colon = system: COLO 205 colon
SNB-75 CNS = system: SNB-75 CNS
HCT-116 colon = system: HCT-116 colon
OVCAR-3 ovarian = system: OVCAR-3 ovarian
UACC-257 melanoma = system: UACC-257 melanoma
HOP-92 NSCLC = system: HOP-92 NSCLC
HL-60(TB) leukemia = system: HL-60(TB) leukemia
MDA-MB-231 breast = system: MDA-MB-231 breast
T-47D breast = system: T-47D breast
NCI/ADR-RES ovarian = system: NCI/ADR-RES ovarian
PC-3 prostate = system: PC-3 prostate
BT-549 breast = system: BT-549 breast

Row | Structure (SMILES) | TGI (ACHN renal) | TGI (SR leukemia) | TGI (SW-620 colon) | TGI (OVCAR-8 ovarian) | TGI (UO-31 renal) | TGI (EKVX NSCLC) | TGI (A498 renal) | TGI (SF-268 CNS) | TGI (COLO 205 colon) | TGI (SNB-75 CNS) | TGI (HCT-116 colon) | TGI (OVCAR-3 ovarian) | TGI (UACC-257 melanoma) | TGI (HOP-92 NSCLC) | TGI (HL-60(TB) leukemia) | TGI (MDA-MB-231 breast) | TGI (T-47D breast) | TGI (NCI/ADR-RES ovarian) | TGI (PC-3 prostate) | TGI (BT-549 breast)
1 | COc1ccc(/C=C/c2cc(OC)c(OCc3ccccc3)c(OC)c2)cc1 | > 100 µM | > 100 µM | > 100 µM | > 100 µM | > 100 µM | > 100 µM | > 100 µM | > 100 µM | > 100 µM | > 100 µM | > 100 µM | > 100 µM | > 100 µM | > 100 µM | – | – | – | – | – | –
2 | O=C(Nc1nc2ncn(CCO)c2c(=O)[nH]1)c1ccccc1 | > 100 µM | > 100 µM | > 100 µM | > 100 µM | > 100 µM | > 100 µM | > 100 µM | > 100 µM | > 100 µM | > 100 µM | > 100 µM | > 100 µM | > 100 µM | > 100 µM | > 100 µM | – | – | – | – | –
3 | COC(=O)c1ccc(C=C(C#N)C#N)cc1 | 56.9 µM | – | 45.1 µM | 56.5 µM | – | > 100 µM | > 100 µM | 59.1 µM | 74.6 µM | 82.5 µM | 31.5 µM | 67.5 µM | – | 39.6 µM | 58.1 µM | – | – | – | – | –
4 | CCOC(=O)/C=C/C1(CCOC(C)=O)CCCCC1 | > 10 µM | > 10 µM | > 10 µM | > 10 µM | > 10 µM | > 10 µM | – | > 10 µM | > 10 µM | > 10 µM | > 10 µM | > 10 µM | > 10 µM | > 10 µM | > 10 µM | > 10 µM | > 10 µM | > 10 µM | > 10 µM | –
5 | Nc1nc2ncn(CC(O)CO)c2c(=O)[nH]1 (centres undefined) | > 100 µM | > 100 µM | > 100 µM | > 100 µM | > 100 µM | > 100 µM | > 100 µM | > 100 µM | > 100 µM | > 100 µM | > 100 µM | > 100 µM | > 100 µM | > 100 µM | > 100 µM | – | – | – | – | –
6 | CC(=O)Nc1ccc(S(=O)(=O)NN(C)S(=O)(=O)c2ccc(C)cc2)cc1 | > 100 µM | > 100 µM | > 100 µM | > 100 µM | > 100 µM | > 100 µM | > 100 µM | > 100 µM | > 100 µM | – | > 100 µM | > 100 µM | > 100 µM | > 100 µM | > 100 µM | – | – | – | – | –
7 | O=C(N/N=C(\C1=Nc2ccc(Cl)cc2NC1O)C(O)/C=C/c1ccccc1)c1ccncc1 (centres undefined) | > 100 µM | > 100 µM | > 100 µM | > 100 µM | > 100 µM | – | – | > 100 µM | > 100 µM | > 100 µM | > 100 µM | > 100 µM | > 100 µM | > 100 µM | > 100 µM | – | – | – | – | –
8 | CC1CC(N2CCOCC2)=Nc2ccccc2N1Cc1ccccc1 (centres undefined) | > 100 µM | – | > 100 µM | > 100 µM | > 100 µM | > 100 µM | 52.3 µM | > 100 µM | > 100 µM | – | > 100 µM | > 100 µM | > 100 µM | – | > 100 µM | > 100 µM | – | > 100 µM | > 100 µM | > 100 µM
9 | CNC(=O)N1N[C@H](c2ccccc2)[C@@H]1c1ccccc1 | > 100 µM | 58.4 µM | 77.7 µM | 29.9 µM | 74.4 µM | 85.6 µM | 55.4 µM | – | 38.8 µM | 92.2 µM | 36.3 µM | 36.7 µM | > 100 µM | 91.2 µM | > 100 µM | > 100 µM | – | 36.6 µM | 99.1 µM | 40.9 µM
10 | O=C1/C(=C/c2cccs2)NC(=S)N1CN1CCCCC1 | > 100 µM | > 100 µM | > 100 µM | > 100 µM | > 100 µM | > 100 µM | > 100 µM | > 100 µM | 47.3 µM | > 100 µM | > 100 µM | > 100 µM | – | > 100 µM | – | > 100 µM | – | > 100 µM | > 100 µM | –
11 | NC(CCCCNCc1ccccc1O)C(=O)O (centres undefined) | > 100 µM | – | > 100 µM | > 100 µM | > 100 µM | > 100 µM | > 100 µM | > 100 µM | > 100 µM | > 100 µM | > 100 µM | > 100 µM | > 100 µM | > 100 µM | > 100 µM | – | – | – | – | –
12 | CSC(=N)N1N=C2/C(=C/c3ccccc3)CCC[C@H]2[C@H]1c1ccccc1 | 11.8 µM | 4.6 µM | 15.3 µM | 24.8 µM | 13.4 µM | 19.4 µM | 18.4 µM | 37.9 µM | 2.93 µM | – | 9.83 µM | 23.8 µM | 6.92 µM | 19.5 µM | 4.29 µM | – | – | – | – | –
13 | Cc1ccc(S(=O)(=O)N2CC(CCN)c3ccccc32)cc1 (centres undefined) | > 53.2 µM | > 100 µM | 18 µM | 27 µM | 27.4 µM | 82.4 µM | 40.6 µM | 23.8 µM | 24.3 µM | 26.5 µM | 25.6 µM | 26.2 µM | 33.9 µM | 52.7 µM | > 100 µM | 29.9 µM | – | 17 µM | 29 µM | 21.9 µM
14 | COc1cc(-c2cc(=O)c3ccccc3[nH]2)cc(OC)c1OC | > 75 µM | > 75 µM | > 75 µM | > 75 µM | > 75 µM | > 75 µM | – | > 75 µM | > 75 µM | > 75 µM | > 75 µM | > 75 µM | > 75 µM | – | > 7.5 µM | – | – | – | – | –
15 | Cc1ccc(S(=O)(=O)NC(=O)Nc2cc(Cl)c(S(N)(=O)=O)cc2S(N)(=O)=O)cc1 | – | – | > 100 µM | > 100 µM | > 100 µM | > 100 µM | – | > 100 µM | > 100 µM | > 100 µM | > 100 µM | > 100 µM | > 100 µM | > 100 µM | > 100 µM | > 100 µM | – | > 100 µM | – | > 100 µM
16 | CCc1ccccc1NC(=O)CC1NC(=O)CS1 (centres undefined) | – | – | > 100 µM | > 100 µM | > 100 µM | > 100 µM | > 100 µM | > 100 µM | > 100 µM | > 100 µM | > 100 µM | > 100 µM | > 100 µM | > 100 µM | > 100 µM | – | – | – | – | –

Reference: PubChem BioAssay (NCI)
